Laboratory results as given in publication PMC7450057, “Enhancing intracellular accumulation and target engagement of PROTACs with reversible covalent chemistry” (Nature Communications, 2020).
Where “and” joins values, the source holds several entries; their conditions need not be identical. Equal values may be shown once.

Assays:
BTK = BTK (Homo sapiens, UniProt Q06187); experiment: BTK degradation in MOLM-14 cells (western blot); type: cell-based; set-up: endogenous in cells; host or cells: MOLM-14; details: for Quantification anti-BTK / anti-β-actin (BTK level vs DMSO): Figure 2d, DMSO = 100 (mean); for BTK degradation (in words): MOLM-14 cells, 200 nM, 24 h (Fig. 2d)
MOLM-14 cells = experiment: AlamarBlue cell viability assay, MOLM-14; details: for IC50: Homo sapiens, MOLM-14, 72 h, read-out: Cell viability IC50, MOLM-14 cells, 72 h, Alamar Blue; for Cell viability, MOML-14: Supplementary Figure 7, replicates
Experimental: The IC50 was calculated using GraphPad Prism software with a four-parameter dose-response curve fit.

BTK-NanoLuc fusion = biological target: T1, BTK-NanoLuc fusion (Homo sapiens, UniProt Q06187); experiment: NanoBRET BTK in-cell target engagement assay; type: cell-based; details: for NanoBRET(%): Figure 3d, triplicates
T1 construct: host or cells: HEK 293T/17
Experimental: The target engagement assay for BTK or CRBN was from Promega (BTK kit, Cat. No. N2500; CRBN kit, Cat. No. CS1810C136) and was performed according to the manufacture’s instruction with some modifications. Briefly, HEK 293/T17 cells (ATCC) were transiently transfected with BTK-NanoLuc® fusion vector or NanoLuc®-CRBN fusion vector (Promega) in 0.125 M CaCl2 and 1x HBS. Forty-eight hours after transfection, the cells were resuspended in Opti-MEM medium (Life Technologies, Cat. No. 11058021) at the density of 2 × 10^5 cells per mL and were plated into 96-well plates (Corning, Cat. No. CLS3600). Cells were incubated with 1.0 µM (BTK) or 0.5 µM (CRBN) NanoBRET™ Tracer and serially diluted unlabeled BTK PROTAC compounds (from 10 to 0.0032 µM, 5-fold dilution) for 2 h at 37 °С with 5% CO2 in an incubator. After 2 h incubation, the 3X Nano-Glo® Substrate with NanoLuc® extracellular inhibitor were added to cells and developed for 3 min at room temperature. BRET signals were collected using a BioTek SYNERGY H1 microplate reader equipped with a 450/80-nm BP filter for donor emission and a 610-nm LP filter for acceptor emission. BRET Ratio was calculated with the equation: [(Acceptor sample/Donor sample)–(Acceptor no tracer control/Donor no tracer control)] × 1000. The IC50 of the compound against its BTK or CRBN tracer was calculated using GraphPad Prism software.

BTK, sequence (Q06187 whole entry): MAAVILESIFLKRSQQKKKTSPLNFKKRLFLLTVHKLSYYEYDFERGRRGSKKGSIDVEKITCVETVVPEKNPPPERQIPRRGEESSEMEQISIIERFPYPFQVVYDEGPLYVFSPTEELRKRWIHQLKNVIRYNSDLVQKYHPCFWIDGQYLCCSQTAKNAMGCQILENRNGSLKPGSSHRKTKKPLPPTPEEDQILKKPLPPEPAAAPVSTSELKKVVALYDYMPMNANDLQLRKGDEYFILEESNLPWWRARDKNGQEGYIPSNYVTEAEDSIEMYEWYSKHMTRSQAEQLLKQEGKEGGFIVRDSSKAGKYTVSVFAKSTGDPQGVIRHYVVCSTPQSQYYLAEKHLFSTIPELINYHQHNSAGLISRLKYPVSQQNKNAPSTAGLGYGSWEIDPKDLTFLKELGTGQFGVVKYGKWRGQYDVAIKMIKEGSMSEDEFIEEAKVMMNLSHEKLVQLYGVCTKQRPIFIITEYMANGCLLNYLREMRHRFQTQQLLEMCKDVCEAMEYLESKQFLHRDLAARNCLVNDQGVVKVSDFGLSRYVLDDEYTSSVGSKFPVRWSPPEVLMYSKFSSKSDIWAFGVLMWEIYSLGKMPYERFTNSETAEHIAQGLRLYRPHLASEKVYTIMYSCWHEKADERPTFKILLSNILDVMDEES
T1 sequence (Q06187 whole entry, the tested form may be a part): as the sequence (Q06187 whole entry) above

Row | Quantification anti-BTK / anti-β-actin (BTK level vs DMSO) (BTK) | IC50 (MOLM-14 cells) | NanoBRET(%) (BTK-NanoLuc fusion; 1.00E-05 M) | NanoBRET(%) (BTK-NanoLuc fusion; 1.60E-08 M) | NanoBRET(%) (BTK-NanoLuc fusion; 2.00E-06 M) | NanoBRET(%) (BTK-NanoLuc fusion; 3.20E-09 M) | NanoBRET(%) (BTK-NanoLuc fusion; 8.00E-08 M) | K′P,D (relative intracellular accumulation coefficient) (BTK-NanoLuc fusion; Kd (BTK)/IC50,TE (BTK)) | IC50 (BTK-NanoLuc fusion; experiment of Fig. 3d, read-out: BTK target engagement IC50) | Structure (SMILES) | BTK degradation (in words) (BTK) | Cell viability, MOML-14 (MOLM-14 cells; drug concentration 1.00E-05 M) | Cell viability, MOML-14 (MOLM-14 cells; drug concentration 1.60E-08 M) | Cell viability, MOML-14 (MOLM-14 cells; drug concentration 2.00E-06 M) | Cell viability, MOML-14 (MOLM-14 cells; drug concentration 3.20E-09 M) | Cell viability, MOML-14 (MOLM-14 cells; drug concentration 4.00E-07 M) | Cell viability, MOML-14 (MOLM-14 cells; drug concentration 6.40E-10 M) | Cell viability, MOML-14 (MOLM-14 cells; drug concentration 8.00E-08 M) | BTK degradation (in words) (BTK; listed as RC-1 warhead)
1 | 91.1107 | 210 nM | – | – | – | – | – | – | – | CN1C(=O)CCC(N2C(=O)c3cccc(NCC(=O)NCCCN(C)C(C)(C)C=C(C#N)C(=O)N4CCCC(n5nc(-c6ccc(Oc7ccccc7)cc6)c6c(N)ncnc65)C4)c3C2=O)C1=O (stereo not shown) [RC-1-Me] | cannot degrade BTK in cells | 5.925 and 2.684 and 5.158 and 0.5402 and 1.464 | 108.445 and 78.2274 and 85.8427 and 61.7071 and 70.0718 | 12.3031 and 8.922 and 10.0028 and 5.594 and 8.609 | 105.5 and 93.5975 and 67.3881 and 77.0075 and 77.9834 | 48.707 and 38.2511 and 45.3611 and 24.9024 and 42.2243 | 105.5 and 122.177 and 88.0908 and 73.4874 and 67.8761 | 81.0853 and 58.6749 and 68.6428 and 51.3383 and 65.994 | –
2 | 83.2734 | 500 nM | 3.378% and 4.061% and 7.763% | 68.6994% and 58.5265% and 79.8426% | 7.973% and 4.415% and 10.8959% | 72.0977% and 81.5236% and 73.9704% | 48.5638% and 40.5056% and 47.7559% | 1.5 × 10^−1 | 47 nM | CC(C)(C)C=C(C#N)C(=O)N1CCCC(n2nc(-c3ccc(Oc4ccccc4)cc3)c3c(N)ncnc32)C1 (stereo not shown) [RC-Ctrl] | Neither RC-Ctrl, nor pomalidomide, nor a combination of both caused BTK degradation | 7.067 and 3.271 and 5.661 and 1.305 and 2.339 | 100.163 and 86.7229 and 69.3512 and 65.5718 and 65.0973 | 19.6597 and 13.6262 and 19.5071 and 12.6093 and 12.5585 | 99.2136 and 96.6714 and 77.7744 and 79.5709 and 66.0125 | 73.5374 and 63.2161 and 57.9961 and 48.3526 and 44.7427 | 106.654 and 105.722 and 82.8418 and 81.5368 and 73.0798 | 93.8411 and 82.0283 and 73.1815 and 65.3176 and 60.962 | neither the RC-1 warhead, nor pomalidomide, nor a combination of both caused BTK degradation
